Assay results published in patent US5017619A, “Phenethanolamine derivatives” (Hoffmann-La Roche Inc., priority 1985, dated 1991).
Read-outs that look alike come from different tables or passages of the source.

Experiments:
male albino rats = experiment: Activity on oxygen consumption; type: in vivo; details: rat, per os, corrected for placebo group; for response vs control in vivo at 1 µM, 1 µmol/kg / response vs control in vivo at 0.3 µM, 0.3 µmol/kg / response vs control in vivo at 3 µM, 3 µmol/kg: po; for response vs control in vivo at 1 µM, 1 µmol/kg: 1 μM/kg; for response vs control in vivo at 3 µM, 3 µmol/kg: 3 μM/kg
Protocol: (1) Activity on oxygen consumption
Male albino rats weighing 160-180 g were placed in metabolic cages after fasting for 24 hours. The cages were ventilated with a constant 6 liter room air/minute which was equilibrated at a dew point of 11° C. Samples of the spent air were collected during periods of in each case 14 minutes after again equilbrating and the oxygen content and CO2 content were analyzed. After an adaptation time of 4 hours the animals, divided into groups of 6, received either placebo (5% gum arabic) or the test substance (suspended in 5% gum arabic) per os. Thereafter, the determinations were carried out for a period of 12 hours. In Table I there is given the percentage of the average oxygen consumption after medication during the first 3 hours and the entire test duration (12 hours) of the oxygen consumption of the adaptation period, corresponding corrections for variations in the placebo group having been taken into consideration.

[1] = test system: female hyperglycaemic fat mice; experiment: Activity on urine glucose and blood glucose and the formation of brown adipose tissue (obese-hyperglycaemic mice); type: in vivo; details: oral, percentage of control value; for Blood glucose / Brown adipose tissue (weight of interscapular brown adipose tissue): end of 15-day test
Protocol: (2) Activity on urine glucose and blood glucose and the formation of brown adipose tissue
Female hyperglycaemic fat mice were adapted to an amount of feed limited to 3 g/day/animal. The test compounds (suspended in 5% gum arabic) or placebo (5% gum arabic) were administered orally twice daily during 15 days. Urine was collected for 6 days a week and urine glucose was determined. Blood glucose and the weight of the interscapular brown adipose tissue were determined at the end of the test.
The test results are given in Table II as a percentage of the control value.

[2] = test system: streptozotocin-diabetic rats; experiment: Activity on the urine glucose of streptozotocin-diabetic rats; type: in vivo, albino rats; details: oral, 90 μM/kg per day, 2nd week of treatment
Protocol: (3) Activity on the urine glucose of streptozotocin-diabetic rats
A diabetes was produced in female albino rats (weight 130-140 g) by the subcutaneous injection of streptozotocin (70 mg/kg). The diabetic animals were adapted to an amount of feed limited to 15 g/day/animal. The test compound (suspended in 5% gum arabic) or placebo (5% gum arabic) was administered orally twice daily. The urine was collected for 6 days a week and urine glucose was determined. The urine glucose excretion of the treated animals during the 2nd week of treatment is given in Table III as a percentage of the control value.

[3] = 3 h, 1st-3rd hour, read-out: O2 consumption, % of value of the pre-period, 1st-3rd hour
[4] = 12 h, 1st-12th hour, read-out: O2 consumption, % of value of the pre-period, 1st-12th hour
[5] = 3 h, 0.3 μM/kg, 1st-3rd hour, read-out: O2 consumption, % of value of the pre-period, 1st-3rd hour
[6] = 12 h, 0.3 μM/kg, 1st-12th hour, read-out: O2 consumption, % of value of the pre-period, 1st-12th hour

## C[C@H](Cc1ccc(OCCOCCc2ccccc2)cc1)N(C[C@H](O)c1ccccc1)C[C@H](O)c1ccccc1 [Example 1, α,α'-[[[(R)-α-methyl-p-[2-(phenethoxy)ethoxy]phenethyl]imino]dimethylene]di-(R)-benzyl alcohol]
Male albino rats; [3]
  response vs control in vivo at 1 µM, 1 µmol/kg: 147%
Male albino rats; [4]
  response vs control in vivo at 1 µM, 1 µmol/kg: 117%

## CCOCCOc1ccc(C[C@@H](C)N(C[C@H](O)c2ccccc2)C[C@H](O)c2ccccc2)cc1 [Example 2a, α,α'-[[[(R)-p-(2-ethoxyethoxy)-α-methylphenethyl]imino]dimethylene]di-(R)-benzyl alcohol]
Male albino rats; [5]
  response vs control in vivo at 0.3 µM, 0.3 µmol/kg: 152%
Male albino rats; [6]
  response vs control in vivo at 0.3 µM, 0.3 µmol/kg: 114%

## COCCOCCOc1ccc(C[C@@H](C)N(C[C@H](O)c2ccccc2)C[C@H](O)c2ccccc2)cc1 [Example 2b]
Male albino rats; [3]
  response vs control in vivo at 1 µM, 1 µmol/kg: 166%
Male albino rats; [4]
  response vs control in vivo at 1 µM, 1 µmol/kg: 119%

## C[C@H](Cc1ccc(OCCOCCc2ccc(F)cc2)cc1)N(C[C@H](O)c1ccccc1)C[C@H](O)c1ccccc1 [Example 2c]
Male albino rats; [3]
  response vs control in vivo at 1 µM, 1 µmol/kg: 167%
Male albino rats; [4]
  response vs control in vivo at 1 µM, 1 µmol/kg: 122%

## C[C@H](Cc1ccc(OCCOCc2ccc(Oc3ccccc3)cc2)cc1)N(C[C@H](O)c1ccccc1)C[C@H](O)c1ccccc1 [Example 2e, α,α'-[[[(R)-α-methyl-p-[2-[(p-phenoxybenzyl)oxy]ethoxy]phenethyl]imino]dimethylene]di-(R)-benzyl alcohol]
Male albino rats; [3]
  response vs control in vivo at 1 µM, 1 µmol/kg: 145%
Male albino rats; [4]
  response vs control in vivo at 1 µM, 1 µmol/kg: 116%

## CCOCCOc1ccc(CCN(C[C@H](O)c2ccccc2)C[C@H](O)c2ccccc2)cc1 [Example 2f, α,α'-[[[p-(2-ethoxyethoxy)phenethyl]imino]dimethylene]di-(R)-benzyl alcohol]
Male albino rats; [3]
  response vs control in vivo at 1 µM, 1 µmol/kg: 142%
Male albino rats; [4]
  response vs control in vivo at 1 µM, 1 µmol/kg: 112%
[1]; 9 μM/Kg per day
  Urine glucose 1st week: 43%
  Urine glucose 2nd week: 33%
  Blood glucose: 51%
  Brown adipose tissue (weight of interscapular brown adipose tissue): 158%
[1]; 90 μM/Kg per day
  Urine glucose 1st week: 4.8%
  Urine glucose 2nd week: 0.3%
  Blood glucose: 34%
  Brown adipose tissue (weight of interscapular brown adipose tissue): 163%

## C[C@H](Cc1ccc(OCCOCCc2ccccc2)cc1)N(C[C@H](O)c1cccc(Cl)c1)C[C@H](O)c1cccc(Cl)c1 [Example 2g1, α,α'-[[[(R)-α-methyl-p-[2-(phenethoxy)ethoxy]phenethyl]imino]dimethylene]bis[(R)-m-chlorobenzyl alcohol]]
Male albino rats; [5]
  response vs control in vivo at 0.3 µM, 0.3 µmol/kg: 137%
Male albino rats; [6]
  response vs control in vivo at 0.3 µM, 0.3 µmol/kg: 117%

## CC(Cc1ccc(OCCOCCc2ccccc2)cc1)N(CC(O)c1cccc(Cl)c1)CC(O)c1cccc(Cl)c1 [Example 2g2, (R)-m-chloro-α-[[[(S)-m-chloro-β-hydroxyphenethyl][(R)-α-methyl-p-[2-phenethoxy)ethoxy]phenethyl]amino]-methyl]benzyl alcohol]]
Male albino rats; [3]
  response vs control in vivo at 1 µM, 1 µmol/kg: 163%
Male albino rats; [4]
  response vs control in vivo at 1 µM, 1 µmol/kg: 131%
[1]; 3 μM/Kg per day
  Urine glucose 1st week: 17.7%
  Urine glucose 2nd week: 2.4%
  Blood glucose: 38%
  Brown adipose tissue (weight of interscapular brown adipose tissue): 157%
[1]; 30 μM/Kg per day
  Urine glucose 1st week: 1.6%
  Urine glucose 2nd week: 0.6%
  Blood glucose: 33%
  Brown adipose tissue (weight of interscapular brown adipose tissue): 144%
[2]
  Urine glucose 2nd week, % of controls: 68%

## C[C@H](Cc1ccc(OCCOCCc2ccccc2)cc1)N(C[C@@H](O)c1cccc(Cl)c1)C[C@@H](O)c1cccc(Cl)c1 [Example 2g3]
Male albino rats; [3]
  response vs control in vivo at 3 µM, 3 µmol/kg: 138%
Male albino rats; [4]
  response vs control in vivo at 3 µM, 3 µmol/kg: 119%

## COC(=O)C=CCOc1ccc(C[C@@H](C)N(C[C@H](O)c2ccccc2)C[C@H](O)c2ccccc2)cc1 [Example 4]
Male albino rats; 0.3 μM/kg, 1st-3rd hour
  O2 consumption, % of value of the pre-period, 1st-3rd hour: 123%
Male albino rats; 0.3 μM/kg, 1st-12th hour
  O2 consumption, % of value of the pre-period, 1st-12th hour: 110%

## CCOCCOc1ccc(CCN(C[C@H](O)c2cccc(Cl)c2)C[C@H](O)c2cccc(Cl)c2)cc1 [Example 8d, α,α'-[[[p-(2-ethoxyethoxy)phenethyl]imino]dimethylene]bis[(R)-m-chlorobenzyl alcohol]]
Male albino rats; [3]
  response vs control in vivo at 3 µM, 3 µmol/kg: 172%
Male albino rats; [4]
  response vs control in vivo at 3 µM, 3 µmol/kg: 147%

## CCOCCOc1ccc(C[C@@H](C)N(C[C@H](O)c2ccccc2)C[C@H](O)c2cccc(Cl)c2)cc1 [Example 10a1, 3-chloro-α,α'-[[[(R)-p-(2-ethoxyethoxy)-α-methylphenethyl]imino]dimethylene]di-(R)-benzyl alcohol]
Male albino rats; [5]
  response vs control in vivo at 0.3 µM, 0.3 µmol/kg: 154%
Male albino rats; [6]
  response vs control in vivo at 0.3 µM, 0.3 µmol/kg: 117%

## CCOCCOc1ccc(C[C@@H](C)N(C[C@@H](O)c2cccc(Cl)c2)C[C@H](O)c2ccccc2)cc1 [Example 10a2, (S)-m-chloro-α-[[[(R)-p-(2-ethoxyethoxy)-α-methylphenethyl][(R)-β-hydroxyphenethyl]amino]methyl]benzyl alcohol]
Male albino rats; [3]
  response vs control in vivo at 3 µM, 3 µmol/kg: 183%
Male albino rats; [4]
  response vs control in vivo at 3 µM, 3 µmol/kg: 141%

## CCOCCOc1ccc(CCN(C[C@@H](O)c2cccc(Cl)c2)C[C@H](O)c2cccc(Cl)c2)cc1 [Example 11, (R)-m-chloro-α-[[[(S)-m-chloro-β-hydroxyphenethyl][p-(2-ethoxyethoxy)phenethyl]amino]methyl]benzyl alcohol]
Male albino rats; [3]
  response vs control in vivo at 3 µM, 3 µmol/kg: 181%
Male albino rats; [4]
  response vs control in vivo at 3 µM, 3 µmol/kg: 140%

## O[C@H](CN(CCc1ccc(OCCOCCc2ccccc2)cc1)C[C@H](O)c1cccc(Cl)c1)c1cccc(Cl)c1 [Example 12a, (R)-m-chloro-α-[[[(S)-m-chloro-β-hydroxyphenethyl]-[p-[2-(phenethoxy)ethoxy]phenethyl]amino]methyl]benzyl alcohol]
Male albino rats; [3]
  response vs control in vivo at 1 µM, 1 µmol/kg: 143%
Male albino rats; [4]
  response vs control in vivo at 1 µM, 1 µmol/kg: 116%
